Results as given in patent US20250339391A1, “METHODS FOR EFFECTIVE MANAGEMENT OF PAIN” (South Rampart Pharma, Inc., priority 2024, published 2025).
Several values for one entry are separate records, joined by “and”; a condition that tells them apart may be missing. Identical values can stand only once. Entries after “also recorded” stand apart in the source; their conditions may differ.

Legend:
[1] = Phase 1 multiple ascending dose (MAD) pharmacokinetics; assay type: in vivo, human
Experimental: (§1) A two-part randomized, double-blind, placebo-controlled Phase 1 trial was conducted to assess the safety, tolerability, PK and PD of SRP-001 ascending doses (Quotient Sciences, Miami, FL USA). The study was conducted in accordance with the International Council for Harmonisation of Technical Requirements for Pharmaceuticals for Human Use (ICH), Guideline for GCP: Consolidated Guidance (E6), and applicable regulatory requirements(s) including clinical research guidelines established by the Basic Principles defined in the U.S. 21 CFR Parts 50, 56, and 312 and the principles enunciated in the Declaration of Helsinki (revised version Fortaleza 2013). The clinical protocol and informed consent form were reviewed and approved by an Institutional Review Board (IRB; Advarra IRB, 6100 Merriweather Drive, Suite 600, Columbia, MD 21044; Quotient Protocol No. SRP-101 and Quotient Sciences Study No. QSC205130; Quotient Sciences Miami, 3898 NW 7th Street, Miami, FL 33126.). The study comprises a SAD (Part 1) assessment that includes a food effect assessment that contributes data to inform a subsequent MAD (Part 2) dose-ranging study. Safety measurements were collected throughout the study for all subjects. Blood samples were collected to determine the PK parameters of SRP-001. ClinicalTrials.gov identifier: NCT05484414

[2] = system: conscious telemetered beagle dogs; assay: Cardiovascular effect in conscious telemetered beagle dogs (GLP); assay type: in vivo, dog
Experimental: The effects of SRP-001 on hERG current amplitude at physiologic temperatures were evaluated over a nominal concentration range of 0.1 μM to 100M. A vehicle group (10% DMSO) was included in the study for comparison, and dofetilide (10 nM) was used as a reference substance. The vehicle and positive controls indicated appropriate sensitivity of the test systems. […] Next, the potential acute effects of oral SRP-001 on cardiovascular function in conscious telemetered beagle dogs was done using a Latin Square design; 4 male naïve beagle dogs each received vehicle (10% DMSO: 10% labrasol: 80% PEG400) and three doses (30, 90, and 150 mg/kg) of SRP-001 nanosuspension by oral gavage. […] A single dose was administered on the day of dosing, and a washout period of seven days was allowed between doses. One-min means of hemodynamic parameters, as well as ECG parameters and body temperature, were measured for a period of at least 24 h. One-min tracings of the ECGs were obtained at 15 min prior to dosing and at 30 min, 1, 2, 4, 8, 12, and 24 h post-dose. Qualitative evaluation of the ECGs was done by a board-certified veterinary cardiologist.

[3] = Phase 1 single ascending dose (SAD) and food effect pharmacokinetics; assay type: in vivo, human
Experimental: as §1
Fasted and Fed Dosing: NHVs were dosed in the fasted state. The calorie/fat content of meals was not required to be controlled. Subjects were provided with a standardized menu. Subjects were provided with a light snack and then fasted from all food and drink (except water) for a minimum of 10 h on the day prior to dosing until approximately 4 h post-dose, at which time lunch was provided. An evening meal was provided at approximately 10 h post-dose/post-morning dose and an evening snack at approximately 14 h post-morning dose. Food effect was studied in the cohort receiving 900 mg SRP-001 in the fed state. A standard high-fat breakfast was given 30 min before dosing. On Day −1, these NHVs were provided with a light snack and fasted from all food and drink (except water) until the following morning, when they were provided with a standard high-fat breakfast. The breakfast had to be consumed over a maximum period of 25 min, with dosing occurring 30 min after the start of breakfast. Subjects were encouraged to eat their meal evenly over the 25 min period. It was acknowledged that some subjects took less time to eat, but dosing still occurred 30 min after the start of breakfast. Subjects had to consume at least 90% to be eligible for dosing. The start and stop time and percentage of the breakfast consumed were recorded in the source. Acceptable deviations for the pre-dose meal from the nominal time point were: 1) Pre-dose meal was provided within +5 min of the nominal time point, 2) Lunch was provided at approximately 4 h post-dose, 3) an evening meal at approximately 10 h post-dose, and 4) an evening snack at approximately 14 h post-dose. On subsequent days, meals were provided at appropriate times.
SRP-001 administration and PK/PD determination: Following a single administration of 300-2,000 mg SRP-001 oral suspension in the fasted state (and in cohort 4, 900 mg in the fed state), plasma concentrations of SRP-001 were observed from the first sampling timepoint of 1 h post-dose for all subjects.

CCN(CC)C(=O)c1ccccc1S(=O)(=O)NCC(=O)Nc1ccc(O)cc1 [SRP-001, N,N-diethyl-2-[[2-(4-hydroxyanilino)-2-oxo-ethyl]sulfamoyl]benzamide]
T1/2, geometric mean ([1]; MAD 500 mg, Day 1): 3.06 h
T1/2, geometric mean ([1]; MAD 1,000 mg, Day 1): 4.05 h
T1/2, geometric mean ([1]; MAD 1,000 mg, Day 5): 9.77 h
T1/2, arithmetic mean ([1]; MAD cohorts): 5.57 h
PK parameters on Day 5 versus Day 1 ([1]; Phase 1 MAD cohort): demonstrated a decrease
half-life ([1]; human, blood, summary aspect, read-out: half-life in said subject): 4.9 to 9.8 h
effects on blood pressure, heart rate, ECG morphology, ECG measurements, body temperature ([2]; 30, 90 and 150 mg/kg oral): no effects on pulmonary function or cardio-telemetry; also recorded: did not induce any biologically relevant effects
QTc ([2]; telemetered safety pharmacology study in dogs): no prolonged QTc
AUC(0-48), geometric mean ([3]; 300 mg fasted): 1630 ng·h/mL
AUC(0-inf), geometric mean ([3]; 300 mg fasted): 1630 ng·h/mL
T1/2, geometric mean ([3]; 300 mg fasted): 2.38 h
dose dependence of geometric mean Cmax and AUC(0-∞) ([3]; 300 mg to 2,000 mg): dose-proportional or super-proportional increase
AUC(0-24), geometric mean ([3]; 600 mg fasted): 5660 ng·h/mL
AUC(0-inf), geometric mean ([3]; 600 mg fasted): 5840 ng·h/mL
Cmax, geometric mean ([3]; 600 mg fasted): 1740 ng/mL
T1/2, geometric mean ([3]; 600 mg fasted): 5.0 h and 5.04 h
AUC(0-24), geometric mean ([3]; 900 mg fasted): 6870 ng·h/mL
AUC(0-inf), geometric mean ([3]; 900 mg fasted): 6970 ng·h/mL
Cmax, geometric mean ([3]; 900 mg fasted): 2700 ng/mL
T1/2, geometric mean ([3]; 900 mg fasted): 3.26 h
AUC(0-24), geometric mean ([3]; 900 mg fed): 6250 ng·h/mL
AUC(0-inf), geometric mean ([3]; 900 mg fed): 5910 ng·h/mL
Cmax, geometric mean ([3]; 900 mg fed): 1200 ng/mL
T1/2, geometric mean ([3]; 900 mg fed): 3.79 h
relative bioavailability based on geometric mean AUC(0-24) ([3]; 900 mg fed vs fasted): 99.2%
relative bioavailability based on geometric mean AUC(0-inf) ([3]; 900 mg fed vs fasted): 101%
relative bioavailability based on geometric mean AUC(0-last) ([3]; 900 mg fed vs fasted): 98.4%
relative bioavailability based on geometric mean Cmax ([3]; 900 mg fed vs fasted): 48.4%
AUC(0-24), geometric mean ([3]; 2000 mg fasted): 18900 ng·h/mL
AUC(0-inf), geometric mean ([3]; 2000 mg fasted): 19600 ng·h/mL
Cmax, geometric mean ([3]; 2000 mg fasted): 4590 ng/mL
T1/2, geometric mean ([3]; 2000 mg fasted): 5.96 h
geometric mean AUC(0-24) as share of the exposure limits defined in the protocol ([3]; 2000 mg fasted): 31%
geometric mean Cmax as share of the exposure limits defined in the protocol ([3]; 2000 mg fasted): 34%
increase of geometric mean AUC(0-24) ([3]; dose from 300 to 600 mg): 3.5 fold
increase of geometric mean Cmax ([3]; dose from 300 to 600 mg): 2.6 fold
increase of geometric mean AUC(0-24) ([3]; dose from 600 to 900 mg): 1.2 fold
increase of geometric mean Cmax ([3]; dose from 600 to 900 mg): 1.6 fold
increase of geometric mean AUC(0-24) ([3]; dose from 900 to 2000 mg): 2.8 fold
increase of geometric mean Cmax ([3]; dose from 900 to 2000 mg): 1.7 fold
